Assay results as given in patent US4463009A, “Dialkyl 1-(2-pyridinylthio)-1,2-hydrazinedicarboxylate, N-oxides and their use as animal growth stimulants” (priority 1983, dated 1984).
Values after ≈ are worked out from the molar mass of the structure shown.

Legend:
C. albicans = experiment: chemotherapeutic activity, m.i.c. against C. albicans; type: cell-based; conditions: Candida albicans
Strep. faecalis = experiment: chemotherapeutic activity, m.i.c. against Strep. faecalis; type: cell-based; conditions: Enterococcus faecalis
Staph. aureus = experiment: chemotherapeutic activity, m.i.c. against Staph. aureus; type: cell-based; conditions: Staphylococcus aureus
broiler chicks = experiment: Chick Growth Study; type: in vivo, chicken; conditions: 8 reps (8/rep)
Experimental: One day old broiler chicks, selected for weight, health and sex, are housed in an environmentally controlled room with temperature at 80° F. and humidity at 40%. Chicks are fed ad libitum. Water is offered ad libitum. A rye or corn basal ration is fed during the acclimation period (days 1 and 2), then, mixed with the compound under test or control conditions on days 3-17. Either 8 pens (64 chicks) or 16 pens (128 chicks) are used for each test or control group.
B. Representative results using diethyl 1-(2-pyridinylthio)-1,2-hydrazinedicarboxylate, N-oxide: […]

[1] = system: Ileal inoculum (filtrate) of Yorkshire barrow; experiment: in vitro incubation with inoculum from cannulated swine (ileal); type: cell-based; conditions: 5 hours at 37°
Experimental: A Yorkshire barrow is surgically prepared either with an ileal cannula, which is placed 15 cm. from the ileo-ceco-colic junction, or a cecal cannula, which placed midway between the apex and origin of the cecum. The animal is fed 4 times daily to restrict intake to 4.5% of body weight in a 30 kg animal or 2.5% of body weight in a 100 kg animal. The swine grower ration is:
Sampling of the material, via the cannula, begins 150-180 minutes following the first morning feeding and continues any time from 30-120 minutes thereafter, depending on the quantity of material needed. The sample is maintained in crushed ice, no cooler than 5°, and is gassed continuously with carbon dioxide. The collected material is filtered. The filtrate is the inoculum used for incubations of the test and control samples. […] Four blank control tubes, along with the test compound tubes, are incubated 5 hours at 37° with agitation. Four more killed tubes are included which are not incubated.
The tubes are each treated with 0.60 ml of a 25% solution of metaphosphoric acid, then, stored at -4° until analysis. Samples are thawed and centrifuged for 25 minutes at 20,000 r.p.m. The supernatent liquid is decanted, sampled for gas chromatography and automatic analysis. The results are fed into a computer for finishing to give figures in which the blank control value is 100%. Virginiamycin is used as a positive control.
*VFA refers to the total of volatile fatty acids, namely acetate,
propionate, isobutyrate, butyrate, isovalerate and valerate. LYS is
lysine, GLU is glucose and LAC is Llactic acid.

E. coli = experiment: chemotherapeutic activity, m.i.c. against E. coli; type: cell-based; conditions: Escherichia coli
[2] = (3) positive control, 166.67 ppm

CCOC(=O)NN(Sc1cccc[n+]1[O-])C(=O)OCC [diethyl 1-(2-pyridinylthio)-1,2-hydrazinedicarboxylate, N-oxide]
MIC (C. albicans): 63 µg/mL (≈ 209 µM)
MIC (Strep. faecalis): 3 µg/mL (≈ 9.96 µM)
MIC (Staph. aureus): 2 µg/mL (≈ 6.64 µM)
Weight, 17 day (broiler chicks; trial (1)): 102.0 % of Control
Dead (broiler chicks; trial (1), 20 ppm in feed): 1
Feed/Gain, days 3-10 (broiler chicks; trial (1), 20 ppm in feed): 102.2 % of Control
Feed/Gain, days 3-17 (broiler chicks; trial (1), 20 ppm in feed): 101.7 % of Control
Feed/Gain, days 10-17 (broiler chicks; trial (1), 20 ppm in feed): 101.7 % of Control
Weight, 10 day (broiler chicks; trial (1), 20 ppm in feed): 96.4 % of Control
Weight, 17 day (broiler chicks; trial (1), 20 ppm in feed): 103.2 % of Control
Dead (broiler chicks; trial (1), 40 ppm in feed): 4
Feed/Gain, days 3-10 (broiler chicks; trial (1), 40 ppm in feed): 103.3 % of Control
Feed/Gain, days 3-17 (broiler chicks; trial (1), 40 ppm in feed): 98.4 % of Control
Feed/Gain, days 10-17 (broiler chicks; trial (1), 40 ppm in feed): 95.0 % of Control
Weight, 10 day (broiler chicks; trial (1), 40 ppm in feed): 90.9 % of Control
Dead (broiler chicks; trial (2), 20 ppm in feed): 4
Feed/Gain, days 3-10 (broiler chicks; trial (2), 20 ppm in feed): 96.8 % of Control
Feed/Gain, days 3-17 (broiler chicks; trial (2), 20 ppm in feed): 96.4 % of Control
Feed/Gain, days 10-17 (broiler chicks; trial (2), 20 ppm in feed): 96.5 % of Control
Weight, 10 day (broiler chicks; trial (2), 20 ppm in feed): 103.5 % of Control
Weight, 17 day (broiler chicks; trial (2), 20 ppm in feed): 103.4 % of Control
Dead (broiler chicks; trial (3), 50 ppm in feed): 0
Feed/Gain, days 3-10 (broiler chicks; trial (3), 50 ppm in feed): 97.1 % of Control
Feed/Gain, days 3-17 (broiler chicks; trial (3), 50 ppm in feed): 93.6 % of Control
Feed/Gain, days 10-17 (broiler chicks; trial (3), 50 ppm in feed): 85.2 % of Control
Weight, 10 day (broiler chicks; trial (3), 50 ppm in feed): 93.2 % of Control
Weight, 17 day (broiler chicks; trial (3), 50 ppm in feed): 102.8 % of Control
GLU (glucose) ([1]; (1), 1.67 ppm): 166 % of control values
LAC (L-lactic acid) ([1]; (1), 1.67 ppm): 91 % of control values
LYS (lysine) ([1]; (1), 1.67 ppm): 109 % of control values
VFA (total volatile fatty acids) ([1]; (1), 1.67 ppm): 91 % of control values
GLU (glucose) ([1]; (1), 16.67 ppm): 237 % of control values
LAC (L-lactic acid) ([1]; (1), 16.67 ppm): 81 % of control values
LYS (lysine) ([1]; (1), 16.67 ppm): 152 % of control values
VFA (total volatile fatty acids) ([1]; (1), 16.67 ppm): 72 % of control values
GLU (glucose) ([1]; (1), 166.7 ppm): 379 % of control values
LAC (L-lactic acid) ([1]; (1), 166.7 ppm): 54 % of control values
LYS (lysine) ([1]; (1), 166.7 ppm): 194 % of control values
VFA (total volatile fatty acids) ([1]; (1), 166.7 ppm): 47 % of control values
GLU (glucose) ([1]; (2), 166.67 ppm): 845 % of control values
LAC (L-lactic acid) ([1]; (2), 166.67 ppm): 139 % of control values
LYS (lysine) ([1]; (2), 166.67 ppm): 110 % of control values
VFA (total volatile fatty acids) ([1]; (2), 166.67 ppm): 55 % of control values
MIC (E. coli): 63 µg/mL (≈ 209 µM)

virginiamycin [reference compound]
GLU (glucose) ([1]; (3) positive control, 1.67 ppm): 393 % of control values
LAC (L-lactic acid) ([1]; (3) positive control, 1.67 ppm): 0 % of control values
LYS (lysine) ([1]; (3) positive control, 1.67 ppm): 99 % of control values
VFA (total volatile fatty acids) ([1]; (3) positive control, 1.67 ppm): 255 % of control values
GLU (glucose) ([1]; (3) positive control, 16.7 ppm): 464 % of control values
LAC (L-lactic acid) ([1]; (3) positive control, 16.7 ppm): 12 % of control values
LYS (lysine) ([1]; (3) positive control, 16.7 ppm): 141 % of control values
VFA (total volatile fatty acids) ([1]; (3) positive control, 16.7 ppm): 114 % of control values
GLU (glucose) [1, 2]: 496 % of control values
LAC (L-lactic acid) [1, 2]: 14 % of control values
LYS (lysine) [1, 2]: 144 % of control values
VFA (total volatile fatty acids) [1, 2]: 86 % of control values
